Data published in article PMC6149849, “Cymantrenyl-Nucleobases: Synthesis, Anticancer, Antitrypanosomal and Antimicrobial Activity Studies” (Molecules : A Journal of Synthetic Chemistry and Natural …, 2017).
Read-outs that look alike come from different tables or passages of the source.

What was measured:
[1] = test system: SKOV-3 (ovarian adenocarcinoma); assay: MTT cytotoxicity assay, SKOV-3; assay type: cell-based, human
Method: (§3) Anticancer activity of cymantrenes was determined using a panel of human cancer cell lines that were derived from solid tumors. […] The inhibitory effect of cymantrene derivatives on cell proliferation and growth was determined based on survival curves and was expressed as IC50 values (concentration required to achieve a 50% decrease in cell viability when compared to the viability of untreated control cells) calculated using GraphPad Prism 4.02 software for Windows (GraphPad Software, San Diego, CA, USA). Cell viability was determined by the MTT microplate spectrophotometric cytotoxicity test.
(§4) The cytotoxicity of cymantrene derivatives was evaluated by the MTT microplate methods as described elsewhere [67] by incubating the cells with increasing concentrations of tested compounds for 24 h. Briefly, 0.1 mL of logarithmically growing cells were seeded in a 96-well microplate (5 × 10^4 cells/well) a day before the experiments and after 24 h of culture, tested compounds, dissolved in DMSO, and diluted in culture medium, were added. […] After further incubation for 24 h, the medium was replaced with fresh medium and the cells were allowed to grow for additional 48 h. Then, the medium was aspirated and 0.05 mL of MTT (final concentration of 5 mg/mL medium) added to each well, and the cells were incubated for further 4 h. The absorbance of the product, resulting from the MTT reduction, was read with a microplate reader at 545 nm. The percentage of viable cells was calculated by comparing the absorbance of treated cells with that of the untreated control cells (taken as 100%). The IC50 concentration of each compound was calculated from the cell survival curves using GraphPad Prism 4.02 software for Windows (GraphPad Software, San Diego, CA, USA).

[2] = test system: S. aureus ATCC 43300 (MRSA); assay: Antibacterial liquid microdilution (CLSI M07-A8); assay type: cell-based, Staphylococcus aureus; settings: 18 to 24 h
Method: (§1) Organometallic compounds play an increasingly important role in the search for new antibacterial agents. We, therefore, thought to investigate also the bactericidal activity of the newly synthesized cymantrenes 1–7, compound C and CymH. The antibacterial activity of the compounds was tested against Gram-positive methicillin-sensitive Staphylococcus aureus (MSSA), methicillin-resistant S. aureus (MRSA), vancomycin-intermediate S. aureus (VISA), S. epidermidis, and Gram-negative Escherichia coli bacterial strains, and expressed as minimal inhibitory concentration (MIC) values (Table 3).
(§2) The antibacterial activity of CymH, 1–7 and C and the reference drugs penicillin G and polymyxin B was tested by the liquid microdilution method under standard conditions using twofold dilution series, as described in the Clinical and Laboratory Standards Institute (CLSI), reference method M07-A8, and expressed as minimal inhibitory concentration (MIC) values. A panel of Gram-positive bacterial strains, S. aureus ATCC® 29213 (sensitive to methicillin, (MSSA)), S. aureus ATCC® 43300 (resistant to methicillin, (MRSA)), S. aureus ATCC 700787™ (intermediate to vancomycin, (VISA)), and S. epidermidis ATCC 12228™, and one Gram-negative, strain E. coli ATCC BAA-198™ (ESBL) were used. In addition, four clinical isolates of S. aureus (MSSA and MRSA) and two clinical isolates of S. epidermidis that were collected from different patients at the Medical University of Warsaw, Poland, were also tested. The bacterial cells were cultivated on tryptic soy agar (TSA) and nutrient agar (NA), according to ATCC recommendations. All of the strains were incubated at 37 °C. Tested compounds were dissolved in DMSO and then serially diluted twofold with cation-adjusted Mueller-Hinton broth (CAMHB). Then, 95 µL of the dilutions were dispensed into microdilution sterile plates (Mar-Four), followed by the addition of 5 µL of bacteria inoculum containing 5 × 10^4 CFU/mL. The final concentrations of the compounds ranged from 512 to 2 µg/mL. Each compound was tested in triplicate, and Penicillin G (8–0.15 µg/mL) and Polymyxin B (256–0.0625 µg/mL) were used as controls. The plates were incubated at 37 °C for 18 to 24 h depending on the bacterial strain. Thereafter, the absorbance was measured at λ = 540 nm and λ = 595 nm using a Spectrostar Omega microplate reader (BMG Labtech, Offenburg, Germany). The MIC value was defined as the lowest concentration of a compound that reduced the growth by 100%.

[3] = test system: S. aureus ATCC 700787 (VISA); assay: Antibacterial liquid microdilution (CLSI M07-A8); assay type: cell-based, Staphylococcus aureus; settings: 18 to 24 h
Method: as §1, §2

[4] = test system: S. aureus ATCC 29213 (MSSA); assay: Antibacterial liquid microdilution (CLSI M07-A8); assay type: cell-based, Staphylococcus aureus; settings: 18 to 24 h
Method: as §1, §2

[5] = test system: A549 (non-small cell lung carcinoma); assay: MTT cytotoxicity assay, A549
Method: Anticancer activity of cymantrenes was determined using a panel of human cancer cell lines that were derived from solid tumors. These included cell lines of estrogen-responsive, doxorubicin resistant, and triple negative breast adenocarcinomas (MCF-7, MCF-7/DX, and MDA-MB-231), ovarian adenocarcinoma (SKOV-3), non-small cell lung carcinoma (A549), hepatocellular carcinoma (HepG2), and glioblastoma (U-87 MG). The inhibitory effect of cymantrene derivatives on cell proliferation and growth was determined based on survival curves and was expressed as IC50 values (concentration required to achieve a 50% decrease in cell viability when compared to the viability of untreated control cells) calculated using GraphPad Prism 4.02 software for Windows (GraphPad Software, San Diego, CA, USA). Cell viability was determined by the MTT microplate spectrophotometric cytotoxicity test.
Anticancer activity of cymantrene derivetives were determined on the basis of their cytotoxic effects on a panel of human cancer cells, as derived from different types of solid tumors: estrogen responsive breast adenocarcinoma (MCF-7), triple negative breast adenocarcinoma (MDA-MB-231), ovarian adenocarcinoma (SKOV-3), non-small cell lung carcinoma (A549), hepatocellular carcinoma (HepG2), and glioblastoma (U-87 MG). Additionally, doxorubicin resistant breast adenocarcinoma cells (MCF-7/Dox) were also included for comparison. All of the cell lines were purchased from American Type Culture Collection (ATCC, Rockville, MD, USA), except the MCF-7/dox cell line, which was a generous gift from Professor Malgorzata Latocha from the Department of Cell Biology, Medical University of Silesia in Katowice, Poland.
Cells were grown as a monolayer in DMEM growth medium, supplemented with 10% FBS, penicillin (10 U/mL) and streptomycin (50 μg/mL), under standard conditions (37 °C, 5% CO2 and 95% air, 100% humidity) and periodically checked for Mycoplasma contamination.
The cytotoxicity of cymantrene derivatives was evaluated by the MTT microplate methods as described elsewhere by incubating the cells with increasing concentrations of tested compounds for 24 h. Briefly, 0.1 mL of logarithmically growing cells were seeded in a 96-well microplate (5 × 10^4 cells/well) a day before the experiments and after 24 h of culture, tested compounds, dissolved in DMSO, and diluted in culture medium, were added. […] After further incubation for 24 h, the medium was replaced with fresh medium and the cells were allowed to grow for additional 48 h. Then, the medium was aspirated and 0.05 mL of MTT (final concentration of […] medium) added to each well, and the cells were incubated for further 4 h. The absorbance of the product, resulting from the MTT reduction, was read with a microplate reader at 545 nm. The percentage of viable cells was calculated by comparing the absorbance of treated cells with that of the untreated control cells (taken as 100%). The IC50 concentration of each compound was calculated from the cell survival curves using GraphPad Prism 4.02 software for Windows (GraphPad Software, San Diego, CA, USA).

[6] = test system: E. coli ATCC BAA-198 (ESBL); assay: Antibacterial liquid microdilution (CLSI M07-A8); assay type: cell-based, Escherichia coli; settings: 18 to 24 h
Method: as §1, §2

[7] = test system: HepG2 (hepatocellular carcinoma); assay: MTT cytotoxicity assay, HepG2; assay type: cell-based, human
Method: as §3, §4

[8] = 24 h incubation, MTT, means ± SEM, read-out: cytotoxicity IC50, SKOV-3
[9] = read-out: cytotoxicity IC50, A549, 24 h incubation, MTT, means ± SEM
[10] = 24 h incubation, MTT, means ± SEM, read-out: cytotoxicity IC50, HepG2

CCC(=O)[C]12[CH]3[CH]4[CH]5[CH]1[Mn]4532.[C-]#[O+].[C-]#[O+].[C-]#[O+] (stereo not shown) [Compound 7, propionylocymantrene]
IC50 [1]: 69.8 ± 3.49 µM
MIC, S. aureus ATCC 43300 (MRSA) [2]: >512 µg/mL
MIC, S. aureus ATCC 700787 (VISA) [3]: >512 µg/mL
MIC, S. aureus ATCC 29213 (MSSA) [4]: >512 µg/mL
IC50 [5]: 30.6 ± 1.35 µM
MIC, E. coli ATCC BAA-198 [6]: >512 µg/mL
IC50 [7]: 110 ± 2.48 µM

O=C(CCn1cc(F)c(=O)[nH]c1=O)[C]12[CH]3[CH]4[CH]5[CH]1[Mn]4532.[C-]#[O+].[C-]#[O+].[C-]#[O+] (stereo not shown) [Compound 1]
IC50 [1]: 75.1 ± 3.76 µM
MIC, S. aureus ATCC 43300 (MRSA) [2]: 32 µg/mL
MIC, S. aureus ATCC 700787 (VISA) [3]: 32 µg/mL
MIC, S. aureus ATCC 29213 (MSSA) [4]: 64 µg/mL
IC50 [5]: 25.1 ± 1.25 µM
MIC, E. coli ATCC BAA-198 [6]: >512 µg/mL
IC50 [7]: 114 ± 2.72 µM

Nc1ncnc2c1ncn2CCC(O)[C]12[CH]3[CH]4[CH]5[CH]1[Mn]45321[P](c2ccccc2)(c2ccccc2)CC[P]1(c1ccccc1)c1ccccc1.[C-]#[O+] (racemic) [Compound C]
MIC, S. aureus ATCC 43300 (MRSA) [2]: 32 µg/mL
MIC, S. aureus ATCC 700787 (VISA) [3]: 32 µg/mL
MIC, S. aureus ATCC 29213 (MSSA) [4]: 32 µg/mL
IC50 [5]: 16.5 ± 0.82 µM
MIC, E. coli ATCC BAA-198 [6]: >128 µg/mL
IC50 [7]: 66.6 ± 3.33 µM

COC(CCn1cnc2c(N(C)C)ncnc21)[C]12[CH]3[CH]4[CH]5[CH]1[Mn]4532.[C-]#[O+].[C-]#[O+].[C-]#[O+] (racemic) [Compound 6]
IC50 [1]: 77.1 ± 3.86 µM
MIC, S. aureus ATCC 43300 (MRSA) [2]: >512 µg/mL
MIC, S. aureus ATCC 700787 (VISA) [3]: >512 µg/mL
MIC, S. aureus ATCC 29213 (MSSA) [4]: >512 µg/mL
IC50 [5]: 102 ± 1.08 µM
MIC, E. coli ATCC BAA-198 [6]: >512 µg/mL
IC50 [7]: 86.9 ± 2.34 µM

COC(CCn1cc(F)c(=O)n(C)c1=O)[C]12[CH]3[CH]4[CH]5[CH]1[Mn]4532.[C-]#[O+].[C-]#[O+].[C-]#[O+] (racemic) [Compound 4]
IC50 [1]: > 150 µM
MIC, S. aureus ATCC 43300 (MRSA) [2]: >512 µg/mL
MIC, S. aureus ATCC 700787 (VISA) [3]: >512 µg/mL
MIC, S. aureus ATCC 29213 (MSSA) [4]: >512 µg/mL
IC50 [5]: > 150 µM
MIC, E. coli ATCC BAA-198 [6]: >512 µg/mL
IC50 [7]: > 150 µM

O=[C]=[Mn](=[C]=O)(=[C]=O)[CH]1C=CC=C1 [CymH, tricarbonyl(η^5-cyclopentadienyl)manganese, reference compound]
IC50 [1, 8]: 121 ± 3.05 µM
MIC, S. aureus ATCC 43300 (MRSA) [2]: >512 µg/mL
MIC, S. aureus ATCC 700787 (VISA) [3]: >512 µg/mL
MIC, S. aureus ATCC 29213 (MSSA) [4]: >512 µg/mL
IC50 [5, 9]: 87 ± 1.35 µM
MIC, E. coli ATCC BAA-198 [6]: >512 µg/mL
IC50 [7, 10]: 74.7 ± 3.73 µM

Nc1ncnc2c1ncn2CCC(O)[C]12[CH]3[CH]4[CH]5[CH]1[Mn]4532[P](c1ccccc1)(c1ccccc1)c1ccccc1.[C-]#[O+].[C-]#[O+] (racemic) [Compound 5]
IC50 [1, 8]: 63.8 ± 3.19 µM
MIC, S. aureus ATCC 43300 (MRSA) [2]: >256 µg/mL
MIC, S. aureus ATCC 700787 (VISA) [3]: >256 µg/mL
MIC, S. aureus ATCC 29213 (MSSA) [4]: >256 µg/mL
IC50 [5, 9]: 23.7 ± 0.86 µM
MIC, E. coli ATCC BAA-198 [6]: >256 µg/mL
IC50 [7, 10]: 106 ± 2.31 µM

O=c1[nH]c(=O)n(CCC(O)[C]23[CH]4[CH]5[CH]6[CH]2[Mn]5643[P](c2ccccc2)(c2ccccc2)c2ccccc2)cc1F.[C-]#[O+].[C-]#[O+] (racemic) [Compound 3]
IC50 [1, 8]: 53 ± 2.65 µM
MIC, S. aureus ATCC 43300 (MRSA) [2]: >256 µg/mL
MIC, S. aureus ATCC 700787 (VISA) [3]: >256 µg/mL
MIC, S. aureus ATCC 29213 (MSSA) [4]: >256 µg/mL
IC50 [5, 9]: 20.4 ± 1.09 µM
MIC, E. coli ATCC BAA-198 [6]: >256 µg/mL
IC50 [7, 10]: 65.8 ± 3.29 µM
